According to PubChem BioAssay AID463203 (Broad Institute, 2010):
Active and inactive are the calls of the source.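 Rule for the calls: active = more than half of replicate measurements showing over 20% loss of kinase signal relative to plate controls; inconclusive = some but at most half of replicates over 20% loss; inactive = no replicate over 20% signal loss.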

target: Glycogen synthase kinase-3 alpha (Homo sapiens) (UniProt P49840); assay: concentration-response blocking of human GSK3A – biochemical, luminescence, cell-free homogeneous, retest, dose response (AID 463203); details: GSK-3 alpha enzyme, ADP-Glo luminescence, 60 min
Sequence (P49840 whole entry, looked up): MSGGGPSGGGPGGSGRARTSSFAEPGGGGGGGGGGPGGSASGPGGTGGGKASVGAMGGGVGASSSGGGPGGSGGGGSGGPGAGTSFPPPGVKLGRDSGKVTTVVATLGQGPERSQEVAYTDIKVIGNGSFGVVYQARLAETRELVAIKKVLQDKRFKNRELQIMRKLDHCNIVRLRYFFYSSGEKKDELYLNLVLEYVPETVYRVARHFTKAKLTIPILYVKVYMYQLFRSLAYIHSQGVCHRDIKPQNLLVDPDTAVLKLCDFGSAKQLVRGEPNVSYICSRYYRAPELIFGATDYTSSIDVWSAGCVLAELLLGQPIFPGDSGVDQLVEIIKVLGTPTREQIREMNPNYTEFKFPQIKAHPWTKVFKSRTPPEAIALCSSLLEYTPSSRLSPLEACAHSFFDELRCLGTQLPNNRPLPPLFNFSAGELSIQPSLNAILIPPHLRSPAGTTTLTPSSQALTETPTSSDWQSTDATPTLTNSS

Q: Which AC50 does the source give for `N#Cc1sc2nc3c(c(-c4ccco4)c2c1N)CCCC3` here?
A: The AC50 was 2.42 µM.

Q: How did the AC50 turn out when `Cc1sc2ncnc(SCC(=O)NCC3CCCO3)c2c1C` (centres undefined) was run?
A: The AC50 was > 30 µM (inactive).

Q: `C=CCn1c(O)c(C(C)=NCCCn2ccnc2)c(=O)[nH]c1=O` was tested. Which AC50 did it give?
A: The AC50 was 19.4 µM.

Q: How did the AC50 turn out when `Cc1n[nH]c(=S)n1/N=C/c1ccc(-c2ccccc2[N+](=O)[O-])o1` was run?
A: Its AC50 is 24.9 µM.

Q: `CC(C)=CCc1cc(-c2oc3cc(O)cc(O)c3c(=O)c2O)ccc1O` was tested. Which AC50 did it give?
A: The AC50 was 9.4 µM.

Q: Which AC50 does the source give for `COC1(OC)N=C(NC(=O)Nc2ccccc2)C2(C#N)C(c3ccccc3)C12C#N` (centres undefined) here?
A: The AC50 was > 30 µM (inactive).

Q: With `CCCCc1ccc(NC(=O)N[C@@H](CC(C)C)C(=O)O)cc1` as the molecule, how does the AC50 read?
A: Its AC50 is > 10 µM (inactive).

Q: Which AC50 does the source give for `COc1ccc(-c2nnc(SCC(=O)Nc3ccccc3OC)o2)cc1` here?
A: Its AC50 is > 30 µM (inactive).

Q: `COc1c(-c2ccc(O)c(O)c2)oc2cc(O)cc(O)c2c1=O` was tested. Which AC50 did it give?
A: The AC50 was 1.93 µM.

Q: For `COc1ccc(/C=N/NC(=O)c2nnn(-c3nonc3N)c2CN(C)c2ccccc2)cc1`, which AC50 is on record?
A: Its AC50 is > 30 µM (inactive).

Q: How did the AC50 turn out when `CCC(=NCCCn1ccnc1)c1c(O)n(-c2ccccc2)c(=O)[nH]c1=O` was run?
A: The AC50 was 27.8 µM.

Q: For `COc1ccc(CCNc2nc(C)c(C(C)=O)s2)cc1OC`, which AC50 is on record?
A: Its AC50 is > 30 µM (inactive).

Q: How did the AC50 turn out when `CCn1c(SCC(=O)Nc2ccc(C)cc2)nnc1-c1ccc(O)cc1` was run?
A: Its AC50 is > 30 µM (inactive).

Q: `CC(C)c1ccc(NC(=O)CSc2n[nH]c(=O)n2-c2ccc3c(c2)OCCO3)cc1` was tested. Which AC50 did it give?
A: Its AC50 is > 30 µM (inactive).

Q: With `Cc1nc2ncnn2c(C)c1Cc1ccccc1Cl` as the molecule, how does the AC50 read?
A: Its AC50 is > 30 µM (inactive).

Q: How did the AC50 turn out when `CCC(C)Nc1nc(N)c([N+](=O)[O-])c(N2CCCCCC2)n1` (centres undefined) was run?
A: Its AC50 is 10.9 µM.

Q: With `CCCC(=O)Nc1nn(CC)c2nc3ccc(C)cc3cc12` as the molecule, how does the AC50 read?
A: The AC50 was > 30 µM (inactive).

Q: Which AC50 does the source give for `Nc1nc(NCCO)nc(N2CCCCCC2)c1[N+](=O)[O-]` here?
A: The AC50 was 18.4 µM.

Q: For `CCCc1cc(C(N)=O)c(NC(C)=O)s1`, which AC50 is on record?
A: Its AC50 is 30.8 µM.

Q: With `Cc1ccc(-c2cn3cccnc3n2)cc1NC(=O)c1ccc(Br)o1` as the molecule, how does the AC50 read?
A: The AC50 was > 30 µM (inactive).

Q: Which AC50 does the source give for `CCC(C)[C@H](NC(=O)NCc1ccccc1Cl)C(=O)OC` (some centres undefined) here?
A: The AC50 was > 30 µM (inactive).

Q: How did the AC50 turn out when `COc1ccc(-c2cnc(N)nc2-c2ccc(OC)cc2O)cc1` was run?
A: Its AC50 is 9.75 µM.

Q: How did the AC50 turn out when `NCCNc1ccc([N+](=O)[O-])c(NC2CC2)c1` was run?
A: The AC50 was > 30 µM (inactive).

Q: Which AC50 does the source give for `Cc1cccc(N2CC(C(=O)Nc3nccs3)CC2=O)c1C` (centres undefined) here?
A: The AC50 was > 30 µM (inactive).

Q: For `Cc1csc(NC(=O)C2CC(=O)N(c3ccc4c(c3)OCCO4)C2)n1` (centres undefined), which AC50 is on record?
A: Its AC50 is > 30 µM (inactive).

Q: With `CC(C)(C)N1C(=O)c2ccc(C(=O)O)cc2C1=O` as the molecule, how does the AC50 read?
A: Its AC50 is > 30 µM (inactive).

Q: With `c1ccc2c(c1)c1ccccc1n1c(-c3ccc4c(c3)OCO4)nnc21` as the molecule, how does the AC50 read?
A: Its AC50 is > 30 µM (inactive).

Q: Which AC50 does the source give for `Nc1nc(N)nc(-c2cc(O)ccc2O)n1` here?
A: The AC50 was 11.8 µM.

Q: How did the AC50 turn out when `O=c1[nH]nc(SCCS(=O)(=O)c2ccc(F)cc2)n1-c1ccccc1` was run?
A: The AC50 was 22.9 µM.

Q: Which AC50 does the source give for `Fc1ccccc1N1CCN(CCCNc2ccc3nncn3n2)CC1` here?
A: The AC50 was > 30 µM (inactive).

Q: With `CC(/C=N/NC(=O)c1nnn(-c2nonc2N)c1C(C)C)=C\c1ccccc1` as the molecule, how does the AC50 read?
A: The AC50 was > 30 µM (inactive).

Q: For `N#C/C(=N\Nc1c(Cl)cccc1Cl)C(=O)NN`, which AC50 is on record?
A: Its AC50 is 5.86 µM.

Q: `CNc1nnc(-c2cc3ccccc3oc2=O)s1` was tested. Which AC50 did it give?
A: The AC50 was 8.99 µM.

Q: With `Clc1cncc(Cl)c1N/N=C/c1ccncc1` as the molecule, how does the AC50 read?
A: Its AC50 is > 30 µM (inactive).

Q: Which AC50 does the source give for `O=C1/C(=C/c2ccc(O)c(O)c2)Oc2cc(O)ccc21` here?
A: The AC50 was 10.5 µM.

Q: Which AC50 does the source give for `Cc1ccnc(NC(=O)CCC(=O)N(CC(=O)NCc2ccc(F)cc2)Cc2ccccc2)c1` here?
A: Its AC50 is 11.4 µM.

Q: How did the AC50 turn out when `O=C1Nc2ccccc2/C1=C/c1cnc(-c2ccccc2)[nH]1` was run?
A: The AC50 was > 30 µM (inactive).

Q: With `Cc1cccc(NC(=O)CSc2nc3[nH]ncc3c(=O)n2-c2ccccc2)c1` as the molecule, how does the AC50 read?
A: The AC50 was > 30 µM (inactive).

Q: For `O=C(c1ccc(F)cc1)c1cnc(Nc2ccccc2)s1`, which AC50 is on record?
A: Its AC50 is > 30 µM (inactive).

Q: For `NC(=O)c1cc([N+](=O)[O-])ccc1NCc1ccc(N)cc1`, which AC50 is on record?
A: Its AC50 is 8.36 µM.

Q: `Cc1nnc(N/N=C/c2ccc(-c3ccc(Br)cc3)o2)n1N` was tested. Which AC50 did it give?
A: Its AC50 is 15.4 µM.

Q: Which AC50 does the source give for `CCCNC(=O)OCCC12CC3CC(CC(C3)C1)C2` here?
A: The AC50 was > 30 µM (inactive).

Q: With `Cc1ccc(S(=O)(=O)Nc2cc(Cl)c(O)c3ncccc23)cc1` as the molecule, how does the AC50 read?
A: Its AC50 is > 30 µM (inactive).

Q: `CCCCCCCCOC(=O)C1=C(C)Nc2nnnn2C1c1cccs1` (centres undefined) was tested. Which AC50 did it give?
A: Its AC50 is > 30 µM (inactive).

Q: For `CCOC(=O)c1cnn(C)c1NC(=O)c1ccc(Cl)cc1Cl`, which AC50 is on record?
A: The AC50 was > 30 µM (inactive).

Q: With `CC(C)CC(=O)Nc1ccc(-c2cn3cccnc3n2)cc1` as the molecule, how does the AC50 read?
A: The AC50 was > 30 µM (inactive).

Q: With `O=C(Nc1nc2c(s1)CCCC2)c1ccc(Br)o1` as the molecule, how does the AC50 read?
A: The AC50 was > 30 µM (inactive).

Q: For `Cc1ccccc1Cn1c(-c2ccc(=O)[nH]c2)nc2ccccc21`, which AC50 is on record?
A: Its AC50 is > 30 µM (inactive).

Q: With `Cn1c(=O)c2[nH]c(NCC3CCCO3)nc2n(-c2ccccc2)c1=O` (centres undefined) as the molecule, how does the AC50 read?
A: The AC50 was 11 µM.

Q: How did the AC50 turn out when `O=C(CSCCO)Nc1ccc([N+](=O)[O-])cc1` was run?
A: Its AC50 is > 30 µM (inactive).

Q: With `NC(=O)c1ccc(N=C2C(=O)Nc3ccc([N+](=O)[O-])cc32)cc1` as the molecule, how does the AC50 read?
A: The AC50 was > 30 µM (inactive).

Q: For `O=C(NCCCCCCNC(=O)OCCO)OCCO`, which AC50 is on record?
A: The AC50 was > 30 µM (inactive).

Q: `COc1ccc(C(=O)NNC(=O)c2ccccn2)cc1` was tested. Which AC50 did it give?
A: The AC50 was 11.8 µM.

Q: With `COC(=O)C1=C(C)N(C)C(=O)/C1=C\c1ccco1` as the molecule, how does the AC50 read?
A: The AC50 was > 30 µM (inactive).
